# Columns and labels:
# Human Axl = target: T1, Human Axl (Homo sapiens, UniProt P30530); assay: Human AXL kinase assay (33P radiometric / HTRF KinEase); type: biochemical; conditions: protocols of Examples A-1 and/or A-2
# T1 construct: Human AXL (residues 464-885)
# T1 sequence (P30530 1-894 Q764R): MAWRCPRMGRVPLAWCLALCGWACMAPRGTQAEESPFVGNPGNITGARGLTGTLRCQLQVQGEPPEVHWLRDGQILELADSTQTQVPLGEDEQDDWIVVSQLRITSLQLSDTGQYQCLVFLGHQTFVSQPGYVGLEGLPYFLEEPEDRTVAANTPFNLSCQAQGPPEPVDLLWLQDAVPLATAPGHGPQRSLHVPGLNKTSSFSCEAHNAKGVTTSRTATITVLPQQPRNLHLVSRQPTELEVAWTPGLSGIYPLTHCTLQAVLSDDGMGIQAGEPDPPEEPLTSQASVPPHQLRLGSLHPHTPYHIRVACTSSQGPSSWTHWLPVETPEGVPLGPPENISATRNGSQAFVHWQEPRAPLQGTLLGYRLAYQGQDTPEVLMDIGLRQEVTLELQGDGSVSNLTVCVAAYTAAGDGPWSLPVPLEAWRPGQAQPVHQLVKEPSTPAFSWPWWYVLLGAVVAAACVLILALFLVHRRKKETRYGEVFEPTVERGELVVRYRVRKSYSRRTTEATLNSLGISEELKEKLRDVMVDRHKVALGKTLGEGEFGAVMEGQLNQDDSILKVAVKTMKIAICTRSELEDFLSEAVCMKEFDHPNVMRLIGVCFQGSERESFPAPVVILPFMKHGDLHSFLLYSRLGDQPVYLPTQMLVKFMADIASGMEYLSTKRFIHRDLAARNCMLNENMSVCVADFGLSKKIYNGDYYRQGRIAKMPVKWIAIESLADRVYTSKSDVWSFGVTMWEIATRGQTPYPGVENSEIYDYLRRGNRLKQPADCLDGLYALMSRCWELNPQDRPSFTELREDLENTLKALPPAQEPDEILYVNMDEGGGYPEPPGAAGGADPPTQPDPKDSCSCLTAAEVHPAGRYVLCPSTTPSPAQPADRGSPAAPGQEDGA
# Protocol: (§1) Kinase activity and compound inhibition were investigated using the ^33P-Phosphoryl transfer radiometric kinase assay, performed using the KinaseProfiler™ service of Eurofins Pharma Discovery Services UK Limited. Dose-response experiments were performed using nine compound concentrations in a 96-well microtiter plate. For each assay, all compounds were prepared to a 50× final assay concentration (50 μM) in 100% DMSO, then diluted in a half-log series, with the final top concentration at 1 μM. This working stock of the compound was added to the assay well as the first component in the reaction, followed by the remaining components as detailed in the following assay protocols below. The positive control wells (100% kinase activity) contain all components of the reaction including 2% DMSO (control for solvent effects), except the compound of interest. Blank wells contain all components of the reaction, with the reference inhibitor, staurosporine. This reference compound was used to abolish kinase activity and generated the 0% kinase activity base-line. IC50 values were calculated by nonlinear regression analysis using the sigmoidal dose-response (variable slope) curve fit on XLFit version 5.3 (ID Business Solutions).
# (§2) Kinase activity and compound inhibition were also investigated using the HTRF® KinEase assay (Cisbio Cat #62TKOPEB) per manufacturer's instructions. In short, compounds were delivered in 300 nL volumes at 10 different concentrations in DMSO (3% final) to empty 384-well assay plates (Corning cat #3824). A mixture of enzyme, 1 μM biotinylated peptide substrate, and buffer in 10 μL volume was added. The assay was started upon the addition of ATP (at Km). The 10 μL reaction was incubated at room temperature. The reaction was stopped upon the addition of detection buffer containing streptavidin-XL665 (5 μL) and TK antibody-Eu3+(5 μL). After a 60 min incubation at room temperature, the fluorescence at 665 nm and 620 nm was read on an Envision microplate reader (Perkin Elmer).
# (§3) Kinase activity normalized to DMSO (100% activity) and reference compound at 1 μM and (0% activity) was calculated using the fluorescence ratio […]. IC50 values were calculated by nonlinear regression analysis using a 4-parameter logistic curve fit in ActivityBase XE (IDBS).
# Example A-1: Human Axl (residues H473-A894 with Q764R, 161 nM) was incubated with 8 mM MOPS pH 7.0, 0.2 mM EDTA, 250 μM KKSRGDYMTMQIG (SEQ ID NO:1), 10 mM magnesium acetate and 10 μM [γ-^33P-ATP]. The reaction was initiated by the addition of the Mg/ATP mix. After incubation for 40 minutes at room temperature, the reaction was stopped by the addition of phosphoric acid to a concentration of 0.5%. A reaction aliquot of 10 μL was then spotted onto a P30 filtermat and washed four times for 4 minutes in 0.425% phosphoric acid and once in methanol prior to drying and scintillation counting. Incorporated ^33P was measured using the Wallac Microbeta scintillation counter (Perkin Elmer).
# Example A-2: Human AXL (residues 464-885; CarnaBio, 1 ng/well) was also incubated with enzymatic buffer (Cisbio) supplemented with 5 mM MgCl2, 1 mM DTT, and Supplemental Enzymatic Buffer (SEB; Cisbio). The mixture was added to the pre-plated compounds. The reaction was initiated upon addition of ATP at Km (1.0 μM). The reaction was incubated at room temperature for 50 min and stopped upon the addition of SA-XL665 and TK-antibody both diluted in EDTA-containing kinase detection buffer (Cisbio). The kinase activity was calculated as stated above and the IC50 values were reported.
# Human Mer = target: T2, Human Mer (Homo sapiens, UniProt Q12866); assay: Human Mer kinase assay (33P radiometric / HTRF KinEase); type: biochemical; conditions: protocols of Examples C-1 and/or C-2
# T2 construct: Human Mer (residues R557-E882 with H628Q and R794A, 0.7 nM); purchased Eurofins Pharma Discovery Services UK Limited (KinaseProfiler service)
# T2 sequence (Q12866 557-882 limits assumed): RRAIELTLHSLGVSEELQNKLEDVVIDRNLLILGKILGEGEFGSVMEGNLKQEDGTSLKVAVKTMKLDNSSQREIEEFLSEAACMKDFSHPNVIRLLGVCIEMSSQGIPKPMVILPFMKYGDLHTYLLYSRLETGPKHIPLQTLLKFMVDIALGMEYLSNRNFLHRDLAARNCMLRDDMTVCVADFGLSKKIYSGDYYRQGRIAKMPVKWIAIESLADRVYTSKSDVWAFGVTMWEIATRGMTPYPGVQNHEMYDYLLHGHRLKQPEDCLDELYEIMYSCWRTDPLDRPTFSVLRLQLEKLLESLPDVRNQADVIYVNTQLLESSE
# Protocol: as §1, §2, §3
# Example C-1: Human Mer (residues R557-E882 with H628Q and R794A, 0.7 nM) was incubated with 8 mM MOPS pH 7.0, 0.2 mM EDTA, 30 mM NaCl, 250 μM GGMEDIYFEFMGGKKK (SEQ ID NO: 2), 10 mM magnesium acetate, and 10 μM [γ-^33P-ATP]. The reaction was initiated by the addition of the Mg/ATP mix. After incubation for 40 minutes at room temperature, the reaction was stopped by the addition of phosphoric acid to a concentration of 0.5%. A reaction aliquot of 10 μL was then spotted onto a P30 filtermat and washed four times for 4 minutes in 0.425% phosphoric acid and once in methanol prior to drying and scintillation counting. Incorporated ^33P was measured using the Wallac Microbeta scintillation counter (Perkin Elmer).
# Example C-2: Human MER (residues 528-999; CarnaBio, 1 ng/well) was also incubated with enzymatic buffer (Cisbio) supplemented with 5 mM MgCl2 and 1 mM DTT. The mixture was added to the pre-plated compounds. The reaction was initiated upon addition of ATP at Km (40 μM). The reaction was incubated at room temperature for 60 min and stopped upon the addition of SA-XL665 and TK-antibody both diluted in EDTA-containing kinase detection buffer (Cisbio). The kinase activity was calculated as stated above and the IC50 values were reported.
smiles,measurement,setting,value
"COCCOc1cnc2c(Oc3ccc(NC(=O)c4c(C)nc(C)c(C5=CCCC5)c4O)cc3F)ccnc2c1 [Compound 101, 5-(Cyclopenten-1-yl)-N-[3-fluoro-4-[[7-(2-methoxyethoxy)-1,5-naphthyridin-4-yl]oxy]phenyl]-4-hydroxy-2,6-dimethylpyridine-3-carboxamide]",IC50,Human Axl,≤ 100 nM
same,IC50,Human Mer,≤ 100 nM

# Reference: patent US20240158393A1, “PYRIDONE COMPOUNDS AND METHODS OF USE” (Exelixis, Inc., priority 2021, published 2024)
